{"source": "patent US8092790B2", "about": "“Methods of making formulations to affect insect behavior and/or bird behavior” (Bug Buster, Ltd., priority 2003, dated 2012)", "key": {"[1]": {"tested_on": "larvae in a laboratory growing medium", "test": "Application to larvae in laboratory growing medium", "assay_type": "in vivo", "conditions": "control group remained in growing medium", "source_text": "Trials involved applying an exemplary compound to larvae in a laboratory growing medium.\nAn exemplary compound, methyl anthranilate (e.g., BIRDSHIELD™) was applied to insects that were first allowed to adapt to a laboratory environment. A control group of insects were not exposed to the exemplary compound."}, "[2]": {"tested_on": "house flies (D. melanogater)", "test": "Treated aluminum siding section on building", "assay_type": "in vivo", "conditions": "0.025%", "source_text": "(§1) An exemplary compound, methyl anthranilate (e.g. Bird Shield™) was applied at 0.025% concentration to a three foot by one foot (three square feet) section of aluminum siding (treated section) and compared with a equal sized section of aluminum siding (untreated section) on the side of a building. Approximately 23 to 25 house flies (D. melanogater) had landed and were resting on each section. […] All of the flies on the untreated section remained. […] Twenty-three flies remained on the adjacent untreated section."}, "house flies": {"tested_on": "house flies", "test": "Treated aluminum siding section on building", "assay_type": "in vivo, D. melanogater", "conditions": "0.025%, thirty minutes after application", "source_text": "as §1"}, "[3]": {"tested_on": "corn ear worm (Heliothus zea)", "test": "Exemplary compound applied after insecticide, sweet corn", "assay_type": "in vivo", "source_text": "An exemplary compound, methyl anthranilate, was applied to sweet corn after the crop had been treated with an insecticide (e.g., the pyrethrin insecticide WARRIOR™) to control corn ear worm (Heliothus zea). Prior to application of the exemplary compound, few if any larvae, which typically reside in the developing ear, were observed on the ground around the corn stalks.\nAfter applying the exemplary compound, methyl anthranilate, at a concentration of approximately 4.5 oz."}, "[4]": {"tested_on": "sunflower seed weevils (Smicronyx spp.)", "test": "Comparison to DEET product, drawing weevils out of sunflower heads", "assay_type": "in vivo", "source_text": "DEET is often used by entomologists in standard procedures to draw sunflower seed weevils (Smicronyx spp.) out of the heads of sunflowers. In this trial, DEET was provided in the commercially available product DEEP WOODS OFF™ repellent (S.C. Johnson and Son's, Racine, Wis.), which has approximately 28.5% active ingredient; 1.5% other isomers and 70% inert ingredients. Forty-two flowers were randomly selected from interiors of three fields. One-half of the flowers were sprayed with the DEET containing repellent while the remaining flowers were sprayed with the exemplary compound at a concentration of approximately 0.00312% methyl anthranilate, which was combined with long chained fatty acids. The number of sunflower weevils was recorded."}, "adult weevils": {"tested_on": "adult weevils", "test": "Exemplary compound on sunflowers previously sprayed with esfenvalerate, weevils emerging", "assay_type": "in vivo", "source_text": "An exemplary compound, methyl anthranilate, was combined with long chain fatty acids. An exemplary method applied the mixture to fifteen maturing sunflowers in the interior of two fields that were previously sprayed with an insecticide, esfenvalerate (e.g., the insecticide product ASANA™). The mixture that included the exemplary compound was applied by spraying the mixture across the head of each flower (e.g., where seeds exist). The number of striped sunflower head moth larvae and weevils, emerging from the seeds, was recorded."}, "[5]": {"tested_on": "striped sunflower head moth larvae", "test": "Exemplary compound applied after exemplary composition, sunflowers", "conditions": "in vivo", "source_text": "An exemplary compound, methyl anthranilate, was combined with long chain fatty acids. The exemplary compound, as mixed with the fatty acids, was applied to three fields of maturing sunflowers. Each of the fields had previously been treated with an exemplary composition that included an exemplary compound, methyl anthranilate (approx. 4.5 oz per acre mixed with long chain fatty acids) and an insecticide, in this example, esfenvalerate (approx. 8 oz per acre using the insecticide product ASANA™). Ten flowers were randomly selected from the interior of each field and one-half of the seed heads were sprayed with DEET and one-half sprayed with the exemplary compound at a concentration of approximately 0.00312% methyl anthranilate, which was in a mixture that included long chain fatty acids. Spraying sprayed across the head of each flower. The number of striped sunflower head moth larvae, emerging from the seeds, was recorded."}, "[6]": {"tested_on": "mosquito (Aedes aegyptis)", "test": "Mosquito repellency on human subject", "assay_type": "in vivo", "source_text": "In these trials, DEET was provided in the commercially available product DEEP WOODS OFF™ repellent (S.C. Johnson & Son, Inc., Racine, Wis.), which has approximately 28.5% active ingredient; 1.5% other isomers and 70% inert ingredients.\nIn a first trial, a human subject was exposed to a mosquito (Aedes aegyptis) rich environment without application of the exemplary compound or DEET. Within less than one minute the subject was covered with the insects. In a second trial, the subject sprayed one unclothed arm with the exemplary compound at a rate of 0.00312% and the other unclothed arm with DEET at a concentration of 0.24%. The subject's head remained untreated. Upon returning to the test area, the subject's head was covered with the insects within one minute. […] In a third trial the subject, after removing the DEET from his/her body, reapplied the exemplary compound to unclothed arms, head and neck before returning to the test area. The subject returned to and remained in the test area for more than one hour without any of the insects landing on his/her arms, hands and head while numerous insects were observed on the clothed portions of his/her anatomy."}, "birds": {"tested_on": "birds", "test": "Container placed in aircraft hanger", "assay_type": "in vivo", "conditions": "2.5 gallon HDPE container at least partially filled"}, "Aenictus": {"tested_on": "Aenictus", "conditions": "in vivo; cited from earlier work"}, "Thrips hawaiiensis": {"tested_on": "Thrips hawaiiensis", "conditions": "in vivo; cited from earlier work"}, "T. tabaci": {"tested_on": "T. tabaci", "conditions": "in vivo; cited from earlier work"}, "[7]": {"tested_on": "Thaumatomyia glabra (Meigen) flies", "conditions": "in vivo; cited from earlier work"}}, "note": "Where “and” joins values, the source holds several entries; their conditions need not be identical. Equal entries are not always repeated.", "data": [{"compound": "COC(=O)c1ccccc1N", "note": "[methyl anthranilate]", "values": [{"measurement": "behavior of exposed insects", "setting": "[1]", "value": "emerged quickly from the laboratory growing medium"}, {"measurement": "flies resting on treated section", "setting": "[2]; immediately after application", "value": "all of the flies departed"}, {"measurement": "flies on treated section", "setting": "[2]; one hour after application", "value": "no flies were observed trying to land on the treated section"}, {"measurement": "time flies remained on treated section", "setting": "[2]; thirty minutes after application", "value": "6 to 8", "unit": "s"}, {"measurement": "flies on treated section", "setting": "[2]; twenty-four hours after application", "value": "no flies were observed on the treated section"}, {"measurement": "flies attempting to land on treated section within a five minute period", "setting": "house flies", "value": "approximately 30 flies"}, {"measurement": "insects on the ground around the corn stalks", "setting": "[3]; approximately 4.5 oz. (127 g) per acre by aircraft, after WARRIOR treatment", "value": "a significant number of insects were observed on the ground"}, {"measurement": "worms in the corn ears at harvest", "setting": "[3]; insecticide (WARRIOR) and methyl anthranilate", "value": "did not contain any significant number of worms"}, {"measurement": "Number of insects, Mean", "setting": "[4]; Field No. 1", "value": 6.8}, {"measurement": "Number of insects, Total", "setting": "[4]; Field No. 1", "value": 68}, {"measurement": "Number of insects, Mean", "setting": "[4]; Field No. 2", "value": 24}, {"measurement": "Number of insects, Total", "setting": "[4]; Field No. 2", "value": 72}, {"measurement": "Number of insects", "setting": "[4]; Field No. 2, per flower, DEET as DEEP WOODS OFF, methyl anthranilate approx. 0.00312% with long chained fatty acids", "value": "23 and 24 and 26"}, {"measurement": "Number of insects, Mean", "setting": "[4]; Field No. 3", "value": 8.4}, {"measurement": "Number of insects, Total", "setting": "[4]; Field No. 3", "value": 67}, {"measurement": "effectiveness compared with DEET", "setting": "[4]; approx. 0.00312% methyl anthranilate with long chained fatty acids vs DEET repellent product", "value": "generally more effective than DEET"}, {"measurement": "Number of Adult Weevils, Mean", "setting": "adult weevils; Field No 2", "value": 1.14}, {"measurement": "Number of Adult Weevils, Total", "setting": "adult weevils; Field No 2", "value": 8}, {"measurement": "Number of Adult Weevils, Mean", "setting": "adult weevils; Field No. 1", "value": 0.43}, {"measurement": "Number of Adult Weevils, Total", "setting": "adult weevils; Field No. 1", "value": 3}, {"measurement": "effectiveness when applied after an exemplary composition", "setting": "[5]", "value": "high level of effectiveness"}, {"measurement": "effectiveness as mosquito repellent compared with DEET", "setting": "[6]; at lower concentrations", "value": "as effective as DEET"}, {"measurement": "mosquitoes on treated unclothed arm", "setting": "[6]; second trial, methyl anthranilate 0.00312%, DEET 0.24%, untreated head covered within one minute", "value": "No mosquitoes were found"}, {"measurement": "time in test area without insects landing on treated arms, hands and head", "setting": "[6]; third trial", "value": "more than one"}, {"measurement": "bird population in hanger", "setting": "birds", "value": "bird population dwindled"}, {"measurement": "surface guano on aircraft", "setting": "birds", "value": "significant drop in surface guano"}, {"measurement": "semiochemical function for Aenictus", "setting": "Aenictus", "value": "trail semiochemicals"}, {"measurement": "attraction of Thrips hawaiiensis", "setting": "Thrips hawaiiensis", "value": "are attracted"}, {"measurement": "attraction of T. tabaci", "setting": "T. tabaci", "value": "did not attract"}, {"measurement": "attraction of Thaumatomyia glabra flies", "setting": "[7]", "value": "attractive"}]}]}
